Assays:
Assay type in all cases: cell-based
[1] = tested on: NCI-H82 small-cell lung cancer cells; assay: CellTiter-Glo luminescent cell viability assay, NCI-H82 small-cell lung cancer cells; conditions: Homo sapiens, 72 hours
Protocol: (§1) In example 1, CELLTITER-GLO was used to test estradiol against small-cell lung cancer and/or ovarian cancer and/or osteosarcoma epithelial cell carcinoma 1. Cell plating • a) The complete medium required for each cell was prepared. • b) Before beginning the experiment, the name of the drug screened for the cells marked on the 100 mm petri dish was confirmed as well as information such as the passage time and number of passages to ensure the experiment was error-free. • c) Refer to steps d) through i) for procedures for adherent cells; refer to steps j) through l) for procedures for suspension cells. • d) When using aseptic technique, a vacuum pump was used to draw the cell culture medium. • e) 2 ml of a sterile PBS solution was used to rinse the cell surface, and a vacuum pump was used to aspirate the PBS waste. • f) A 1 ml 0.25% (w/v) Trypsin-0.038% (w/v) EDTA solution was gently added to the petri dish for cell digestion, and after gently mixing several times, the solution covered the cell surfaces. […]

[2] = tested on: NCI-H810 human hepatoma cells; assay: CellTiter-Glo luminescent cell viability assay, NCI-H810 human hepatoma cells; conditions: 72 hours
Protocol: as §1

[3] = tested on: SNU-475 human hepatoma cells; assay: CellTiter-Glo luminescent cell viability assay, SNU-475 human hepatoma cells; conditions: 72 hours
[4] = tested on: U2OS osteosarcoma cells; assay: CellTiter-Glo luminescent cell viability assay, U2OS osteosarcoma cells; conditions: Homo sapiens, 72 hours
Protocol: as §1

[5] = tested on: SKOV-3 ovarian cancer cells; assay: CellTiter-Glo luminescent cell viability assay, SKOV-3 ovarian cancer cells; conditions: Homo sapiens, 72 hours
Protocol: as §1

Compound: C[C@]12CC[C@@H]3c4ccc(O)cc4CC[C@H]3[C@@H]1CC[C@@H]2O [estradiol]
- IC50 [1]: 16.3 µM
- EC50 ([1]; read-out: EC50 (estradiol sensitivity to small-cell lung cancer, FIG. 3)): 15.3 µM
- IC50 [2]: ≥ 100 µM
- IC50 [3]: ≥ 100 µM
- IC50 [4]: 32.7 µM
- EC50 ([4]; read-out: EC50 (estradiol sensitivity to osteosarcoma, FIG. 4)): 28.8 µM
- IC50 ([5]; SK-OV-3, SKOV-3 ovarian cancer cells): 3.07 µM
- EC50 ([5]; SK-OV-3, ovarian cancer cells, read-out: EC50 (estradiol sensitivity to ovarian cancer, FIG. 2)): 3.03 µM

Source: patent publication US11273165B2, “Applications for estradiol in preparing anti-small cell lung cancer and/or ovarian cancer and/or osteosarcoma products” (SHANGHAI JIAO TONG UNIVERSITY, priority 2015, dated 2022)
